Assay results as given in ChEMBL document CHEMBL5046241, “The novel therapeutic strategy of vilazodone-donepezil chimeras as potent triple-target ligands for the potential treatment of Alzheimer's disease with comorbid depression” (Eur J Med Chem, 2022).

Biological target: T1, 5-hydroxytryptamine receptor 1A (Homo sapiens, UniProt P08908)
T1 sequence (P08908 whole entry): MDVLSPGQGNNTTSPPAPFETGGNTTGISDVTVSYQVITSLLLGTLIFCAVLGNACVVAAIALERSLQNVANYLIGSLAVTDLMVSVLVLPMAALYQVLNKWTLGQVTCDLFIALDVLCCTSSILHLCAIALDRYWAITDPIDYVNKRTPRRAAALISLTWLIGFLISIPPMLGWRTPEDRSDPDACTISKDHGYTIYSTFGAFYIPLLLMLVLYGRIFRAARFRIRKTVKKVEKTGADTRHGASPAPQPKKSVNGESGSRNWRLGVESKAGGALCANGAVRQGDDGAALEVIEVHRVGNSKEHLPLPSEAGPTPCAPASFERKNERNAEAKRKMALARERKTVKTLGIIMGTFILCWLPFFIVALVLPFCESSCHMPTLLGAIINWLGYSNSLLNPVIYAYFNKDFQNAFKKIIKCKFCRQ
Assay: not given
Conditions: not given

Going from `N#Cc1ccc2[nH]cc(CCN3CCN(c4ccc(C(=O)CCC5CCN(Cc6cccnc6)CC5)cc4)CC3)c2c1` to `N#Cc1ccc2[nH]cc(CN3CCN(c4ccc(C(=O)CCC5CCN(Cc6cccnc6)CC5)cc4)CC3)c2c1`, the EC50 rises from 547 nM to greater than 1000 nM. The first is the more potent here.

Going from `N#Cc1ccc2[nH]cc(CCCCN3CCN(c4ccc(C(=O)CCC5CCN(Cc6cccc(Cl)c6)CC5)cc4)CC3)c2c1` to `N#Cc1ccc2[nH]cc(CCCCN3CCN(c4ccc(C(=O)CCC5CCN(Cc6ccoc6)CC5)cc4)CC3)c2c1`, the EC50 falls from 203 nM to 19 nM (11-fold). The second is the more potent here.

`N#Cc1ccc2[nH]cc(CCN3CCN(c4ccc5c(c4)CC(CC4CCN(Cc6ccccc6)CC4)C5=O)CC3)c2c1` (configuration not stated) and `N#Cc1ccc2[nH]cc(CN3CCN(c4ccc5c(c4)CC(CC4CCN(Cc6ccccc6)CC4)C5=O)CC3)c2c1` (configuration not stated) cannot be ordered by EC50: greater than 1000 nM for the first, greater than 1000 nM for the second.

First: N#Cc1ccc2[nH]cc(CCCCN3CCN(c4cccc5c4C(=O)C(CC4CCN(Cc6ccccc6)CC4)C5)CC3)c2c1 (configuration not stated)
Second: N#Cc1ccc2[nH]cc(CCCCN3CCN(c4ccc(C(=O)CCC5CCN(Cc6ccc7ccccc7c6)CC5)cc4)CC3)c2c1
The EC50 of the first is lower: 36 nM for the first, greater than 1000 nM for the second.

Going from `CCN1CCC(CCC(=O)c2ccc(N3CCN(CCCCc4c[nH]c5ccc(C#N)cc45)CC3)cc2)CC1` to `N#Cc1ccc2[nH]cc(CCCCN3CCN(c4ccc(C(=O)CCC5CCN(Cc6cc[nH]c6)CC5)cc4)CC3)c2c1`, the EC50 rises from 9 nM to 22.2 nM (2.5-fold).

Compound `N#Cc1ccc2[nH]cc(CN3CCN(c4ccc(C(=O)CCC5CCN(Cc6ccoc6)CC5)cc4)CC3)c2c1` has an EC50 greater than 1000 nM.

Biological target: Sodium-dependent serotonin transporter (Homo sapiens, UniProt P31645)
Sequence (P31645 whole entry): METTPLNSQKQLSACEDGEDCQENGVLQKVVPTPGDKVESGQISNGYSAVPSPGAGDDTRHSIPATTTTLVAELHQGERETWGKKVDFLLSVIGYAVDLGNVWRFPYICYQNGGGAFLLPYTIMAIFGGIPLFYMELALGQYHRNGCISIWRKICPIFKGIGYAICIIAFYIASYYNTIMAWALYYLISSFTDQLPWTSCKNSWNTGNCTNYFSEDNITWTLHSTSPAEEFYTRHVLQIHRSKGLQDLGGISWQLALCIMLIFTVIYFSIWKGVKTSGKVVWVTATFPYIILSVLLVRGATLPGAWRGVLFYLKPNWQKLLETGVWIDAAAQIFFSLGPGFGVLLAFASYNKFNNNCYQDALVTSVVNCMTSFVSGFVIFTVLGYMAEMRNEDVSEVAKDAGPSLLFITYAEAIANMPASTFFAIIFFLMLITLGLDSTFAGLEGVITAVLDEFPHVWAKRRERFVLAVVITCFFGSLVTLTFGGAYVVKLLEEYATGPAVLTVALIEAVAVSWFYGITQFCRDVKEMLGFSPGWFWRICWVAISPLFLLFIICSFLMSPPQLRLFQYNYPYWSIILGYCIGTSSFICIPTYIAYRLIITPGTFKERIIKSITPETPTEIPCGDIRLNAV
Assay: not given
Format: cell-based, HEK293
Conditions: not given

Compared with `N#Cc1ccc2[nH]cc(CCN3CCN(c4ccc5c(c4)CC(CC4CCN(Cc6ccccc6)CC4)C5=O)CC3)c2c1` (configuration not stated), `N#Cc1ccc2[nH]cc(CN3CCN(c4ccc5c(c4)CC(CC4CCN(Cc6ccccc6)CC4)C5=O)CC3)c2c1` (configuration not stated) is 1.8-fold higher in IC50: 8.81 nM for the first, 15.9 nM for the second. The first is the more potent here.

Compared with `N#Cc1ccc2[nH]cc(CCCCN3CCN(c4ccc(C(=O)CCC5CCN(Cc6ccoc6)CC5)cc4)CC3)c2c1`, `N#Cc1ccc2[nH]cc(CCCCN3CCN(c4ccc(C(=O)CCC5CCN(Cc6cc[nH]c6)CC5)cc4)CC3)c2c1` is 4.3-fold lower in IC50: 35.7 nM for the first, 8.25 nM for the second.

Biological target: T2, Acetylcholinesterase (Mus musculus, UniProt P21836)
T2 sequence (P21836 whole entry): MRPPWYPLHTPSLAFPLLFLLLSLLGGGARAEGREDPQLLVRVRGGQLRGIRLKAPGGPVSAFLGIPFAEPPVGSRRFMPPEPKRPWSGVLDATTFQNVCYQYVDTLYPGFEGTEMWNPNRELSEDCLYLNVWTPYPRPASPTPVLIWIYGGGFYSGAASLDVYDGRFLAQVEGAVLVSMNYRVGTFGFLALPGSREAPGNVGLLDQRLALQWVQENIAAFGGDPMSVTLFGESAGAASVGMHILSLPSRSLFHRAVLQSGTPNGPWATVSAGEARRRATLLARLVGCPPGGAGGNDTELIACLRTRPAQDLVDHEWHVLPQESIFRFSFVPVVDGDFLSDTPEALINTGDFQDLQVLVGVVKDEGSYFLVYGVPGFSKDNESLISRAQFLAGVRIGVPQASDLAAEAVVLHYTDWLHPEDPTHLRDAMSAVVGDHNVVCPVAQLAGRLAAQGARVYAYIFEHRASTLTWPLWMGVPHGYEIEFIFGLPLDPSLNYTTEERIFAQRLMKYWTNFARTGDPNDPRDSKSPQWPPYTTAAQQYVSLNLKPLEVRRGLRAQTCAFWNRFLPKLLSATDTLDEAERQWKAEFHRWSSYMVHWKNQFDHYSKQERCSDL
Assay: biochemical
Conditions: not given

`N#Cc1ccc2[nH]cc(CCN3CCN(c4ccc(C(=O)CCC5CCN(Cc6cccnc6)CC5)cc4)CC3)c2c1` and `N#Cc1ccc2[nH]cc(CN3CCN(c4ccc(C(=O)CCC5CCN(Cc6cccnc6)CC5)cc4)CC3)c2c1` are within 1.5-fold of each other in IC50: 7.7 nM for the first, 9.97 nM for the second.

Compared with `N#Cc1ccc2[nH]cc(CCCCN3CCN(c4ccc(C(=O)CCC5CCN(Cc6cccc(Cl)c6)CC5)cc4)CC3)c2c1`, `N#Cc1ccc2[nH]cc(CCCCN3CCN(c4ccc(C(=O)CCC5CCN(Cc6ccoc6)CC5)cc4)CC3)c2c1` is 3-fold lower in IC50: 27 nM for the first, 8.95 nM for the second.

`N#Cc1ccc2[nH]cc(CCN3CCN(c4ccc5c(c4)CC(CC4CCN(Cc6ccccc6)CC4)C5=O)CC3)c2c1` (configuration not stated) and `N#Cc1ccc2[nH]cc(CN3CCN(c4ccc5c(c4)CC(CC4CCN(Cc6ccccc6)CC4)C5=O)CC3)c2c1` (configuration not stated) are within 1.5-fold of each other in IC50: 8.7 nM for the first, 6.68 nM for the second.

Compared with `N#Cc1ccc2[nH]cc(CCCCN3CCN(c4cccc5c4C(=O)C(CC4CCN(Cc6ccccc6)CC4)C5)CC3)c2c1` (configuration not stated), `N#Cc1ccc2[nH]cc(CCCCN3CCN(c4ccc(C(=O)CCC5CCN(Cc6cc[nH]c6)CC5)cc4)CC3)c2c1` is 180-fold lower in IC50: 709 nM for the first, 3.94 nM for the second. The second is the more potent here.

Compared with `CCN1CCC(CCC(=O)c2ccc(N3CCN(CCCCc4c[nH]c5ccc(C#N)cc45)CC3)cc2)CC1`, `N#Cc1ccc2[nH]cc(CN3CCN(c4ccc(C(=O)CCC5CCN(Cc6ccoc6)CC5)cc4)CC3)c2c1` is 37-fold lower in IC50: 393 nM for the first, 10.6 nM for the second. The second is the more potent here.

Biological target: Cholinesterase (Mus musculus, UniProt Q03311)
Sequence (Q03311 whole entry): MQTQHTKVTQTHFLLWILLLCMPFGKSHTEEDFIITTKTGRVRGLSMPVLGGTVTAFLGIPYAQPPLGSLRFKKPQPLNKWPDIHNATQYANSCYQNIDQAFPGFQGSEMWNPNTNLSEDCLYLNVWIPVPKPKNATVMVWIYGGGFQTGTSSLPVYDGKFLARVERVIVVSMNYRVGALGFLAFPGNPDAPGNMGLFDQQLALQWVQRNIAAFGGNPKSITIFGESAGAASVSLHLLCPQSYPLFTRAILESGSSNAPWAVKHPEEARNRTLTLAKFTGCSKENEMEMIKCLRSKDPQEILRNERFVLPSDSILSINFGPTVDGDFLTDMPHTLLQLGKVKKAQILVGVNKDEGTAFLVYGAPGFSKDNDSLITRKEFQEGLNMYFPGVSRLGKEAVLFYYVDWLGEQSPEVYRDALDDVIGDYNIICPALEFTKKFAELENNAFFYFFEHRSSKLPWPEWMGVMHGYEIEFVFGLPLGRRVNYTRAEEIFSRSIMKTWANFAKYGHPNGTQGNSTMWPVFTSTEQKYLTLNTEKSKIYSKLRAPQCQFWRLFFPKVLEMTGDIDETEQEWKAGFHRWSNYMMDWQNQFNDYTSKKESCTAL
Assay: not given
Conditions: not given

`N#Cc1ccc2[nH]cc(CCN3CCN(c4ccc(C(=O)CCC5CCN(Cc6cccnc6)CC5)cc4)CC3)c2c1` and `N#Cc1ccc2[nH]cc(CN3CCN(c4ccc(C(=O)CCC5CCN(Cc6cccnc6)CC5)cc4)CC3)c2c1` are within 1.5-fold of each other in IC50: 6750 nM for the first, 5850 nM for the second.

First: N#Cc1ccc2[nH]cc(CCCCN3CCN(c4ccc(C(=O)CCC5CCN(Cc6cccc(Cl)c6)CC5)cc4)CC3)c2c1
Second: N#Cc1ccc2[nH]cc(CCCCN3CCN(c4ccc(C(=O)CCC5CCN(Cc6ccoc6)CC5)cc4)CC3)c2c1
The IC50 of the first is 5.6-fold higher: 15300 nM for the first, 2730 nM for the second. The second is the more potent here.

`N#Cc1ccc2[nH]cc(CCN3CCN(c4ccc5c(c4)CC(CC4CCN(Cc6ccccc6)CC4)C5=O)CC3)c2c1` (configuration not stated) and `N#Cc1ccc2[nH]cc(CN3CCN(c4ccc5c(c4)CC(CC4CCN(Cc6ccccc6)CC4)C5=O)CC3)c2c1` (configuration not stated) are within 1.5-fold of each other in IC50: 638 nM for the first, 498 nM for the second.

First: N#Cc1ccc2[nH]cc(CCCCN3CCN(c4cccc5c4C(=O)C(CC4CCN(Cc6ccccc6)CC4)C5)CC3)c2c1 (configuration not stated)
Second: N#Cc1ccc2[nH]cc(CCCCN3CCN(c4ccc(C(=O)CCC5CCN(Cc6cc[nH]c6)CC5)cc4)CC3)c2c1
The IC50 of the first is 11-fold lower: 183 nM for the first, 2000 nM for the second.

First: CCN1CCC(CCC(=O)c2ccc(N3CCN(CCCCc4c[nH]c5ccc(C#N)cc45)CC3)cc2)CC1
Second: N#Cc1ccc2[nH]cc(CN3CCN(c4ccc(C(=O)CCC5CCN(Cc6ccoc6)CC5)cc4)CC3)c2c1
The IC50 of the first is 1.7-fold higher: 2380 nM for the first, 1400 nM for the second.

Test system: not listed separately
Assay: in vitro
Conditions: PAMPA
Description: Permeability of compound by PAMPA-BBB assay

`N#Cc1ccc2[nH]cc(CCN3CCN(c4ccc(C(=O)CCC5CCN(Cc6cccnc6)CC5)cc4)CC3)c2c1` and `N#Cc1ccc2[nH]cc(CN3CCN(c4ccc(C(=O)CCC5CCN(Cc6cccnc6)CC5)cc4)CC3)c2c1` are within 1.5-fold of each other in Papp: 2.58 ×10⁻⁶ cm/s for the first, 2.86 ×10⁻⁶ cm/s for the second.

`N#Cc1ccc2[nH]cc(CCN3CCN(c4ccc5c(c4)CC(CC4CCN(Cc6ccccc6)CC4)C5=O)CC3)c2c1` (configuration not stated) and `N#Cc1ccc2[nH]cc(CN3CCN(c4ccc5c(c4)CC(CC4CCN(Cc6ccccc6)CC4)C5=O)CC3)c2c1` (configuration not stated) are within 1.5-fold of each other in Papp: 4.16 ×10⁻⁶ cm/s for the first, 3.61 ×10⁻⁶ cm/s for the second.

`N#Cc1ccc2[nH]cc(CCCCN3CCN(c4ccc(C(=O)CCC5CCN(Cc6ccoc6)CC5)cc4)CC3)c2c1` and `N#Cc1ccc2[nH]cc(CN3CCN(c4ccc(C(=O)CCC5CCN(Cc6ccoc6)CC5)cc4)CC3)c2c1` are within 1.5-fold of each other in Papp: 4.68 ×10⁻⁶ cm/s for the first, 5.56 ×10⁻⁶ cm/s for the second.

`N#Cc1ccc2[nH]cc(CCCCN3CCN(c4ccc(C(=O)CCC5CCN(Cc6cc[nH]c6)CC5)cc4)CC3)c2c1` showed a Papp of 4.77 ×10⁻⁶ cm/s.
